In PubChem BioAssay AID248 (DTP/NCI, 2004):
Where “and” joins values, the source holds several entries; their conditions need not be identical. Equal values may be shown once. Toxic doses and inconclusive results are not listed. No stated cut-off is given here; in the data, active means T/C of 150% or more; inactive means T/C below 125%.

Tested on: L1210 leukemia ip in BDF1 mice, survival T/C
Assay: NCI In Vivo Anticancer Drug Screen. Data for tumor model L1210 Leukemia (intraperitoneal) in B6D2F1 (BDF1) mice
Settings: endpoint: mean survival time, higher = longer survival
Method in brief: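 Survival endpoint. Drug-treated group vs vehicle group, expressed as T divided by C. Tumor passaged by transplantation.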

[1] = dose: 25.0 mg/kg/injection, schedule: Q01DX009 (ip), vehicle: Klucel (hydroxypropylcellulose) (HPC)
[2] = dose: 50.0 mg/kg/injection, schedule: Q01DX009 (ip), vehicle: Klucel (hydroxypropylcellulose) (HPC)
[3] = dose: 50.0 mg/kg/injection, schedule: Q04DX002 (ip), vehicle: Klucel (hydroxypropylcellulose) (HPC)
[4] = dose: 100.0 mg/kg/injection, schedule: Q04DX002 (ip), vehicle: Klucel (hydroxypropylcellulose) (HPC)
[5] = dose: 200.0 mg/kg/injection, schedule: Q04DX002 (ip), vehicle: Klucel (hydroxypropylcellulose) (HPC)
[6] = dose: 400.0 mg/kg/injection, schedule: Q04DX002 (ip), vehicle: Klucel (hydroxypropylcellulose) (HPC)
[7] = dose: 100.0 mg/kg/injection, schedule: Q01DX009 (ip), vehicle: Klucel (hydroxypropylcellulose) (HPC)
[8] = dose: 100.0 mg/kg/injection, schedule: Q04DX003 (ip), vehicle: Klucel (hydroxypropylcellulose) (HPC)
[9] = dose: 200.0 mg/kg/injection, schedule: Q04DX003 (ip), vehicle: Klucel (hydroxypropylcellulose) (HPC)
[10] = dose: 400.0 mg/kg/injection, schedule: Q04DX003 (ip), vehicle: Klucel (hydroxypropylcellulose) (HPC)
[11] = dose: 100.0 mg/kg/injection, schedule: Q04DX003 (ip), vehicle: saline with Tween-80
[12] = dose: 400.0 mg/kg/injection, schedule: Q04DX003 (ip), vehicle: saline with Tween-80
[13] = dose: 200.0 mg/kg/injection, schedule: Q04DX003 (ip), vehicle: saline with Tween-80
[14] = dose: 200.0 mg/kg/injection, schedule: Q01DX009 (ip), vehicle: Klucel (hydroxypropylcellulose) (HPC)
[15] = dose: 400.0 mg/kg/injection, schedule: Q01DX009 (ip), vehicle: Klucel (hydroxypropylcellulose) (HPC)
[16] = dose: 100.0 mg/kg/injection, schedule: Q01DX001 (ip), vehicle: saline
[17] = dose: 200.0 mg/kg/injection, schedule: Q01DX001 (ip), vehicle: saline
[18] = dose: 400.0 mg/kg/injection, schedule: Q01DX001 (ip), vehicle: saline
[19] = dose: 100.0 mg/kg/injection, schedule: Q01DX001 (ip), vehicle: carboxymethylcellulose (CMC)
[20] = dose: 200.0 mg/kg/injection, schedule: Q01DX001 (ip), vehicle: carboxymethylcellulose (CMC)
[21] = dose: 400.0 mg/kg/injection, schedule: Q01DX001 (ip), vehicle: carboxymethylcellulose (CMC)

Measured: T/C

O=C(CBr)c1ccc(Br)cc1
inactive: dose: 12.5 mg/kg/injection, schedule: Q01DX009 (ip), vehicle: Klucel (hydroxypropylcellulose) (HPC) 97 % of control | [1] 97 % of control | dose: 25.0 mg/kg/injection, schedule: Q04DX002 (ip), vehicle: Klucel (hydroxypropylcellulose) (HPC) 100 % of control | [2] 93 % of control | [3] 89 % of control | [4] 96 % of control and 107 % of control | [5] 111 % of control | [6] 92 % of control

O=[N+]([O-])c1ccc(N2CCC(CCCC3CCN(c4ccc([N+](=O)[O-])cc4[N+](=O)[O-])CC3)CC2)c([N+](=O)[O-])c1
inactive: [1] 101 % of control | [2] 93 % of control | [7] 95 % of control and 105 % of control | [8] 98 % of control | [9] 97 % of control | [10] 104 % of control

CCCCN1C(=O)c2cccnc2C1=O
inactive: dose: 75.0 mg/kg/injection, schedule: Q04DX003 (ip), vehicle: Klucel (hydroxypropylcellulose) (HPC) 102 % of control | dose: 100.0 mg/kg/injection, schedule: Q01DX001 (ip), vehicle: saline with Tween-80 103 % of control | [11] 103 % of control | dose: 150.0 mg/kg/injection, schedule: Q04DX003 (ip), vehicle: Klucel (hydroxypropylcellulose) (HPC) 96 % of control | dose: 200.0 mg/kg/injection, schedule: Q01DX001 (ip), vehicle: saline with Tween-80 97 % of control | dose: 300.0 mg/kg/injection, schedule: Q04DX003 (ip), vehicle: Klucel (hydroxypropylcellulose) (HPC) 95 % of control | dose: 400.0 mg/kg/injection, schedule: Q01DX001 (ip), vehicle: saline with Tween-80 93 % of control | [12] 95 % of control

NC(=NCc1ccccc1)c1ncn(C2CCCC2)c1N
inactive: dose: 12.5 mg/kg/injection, schedule: Q01DX001 (ip), vehicle: Klucel (hydroxypropylcellulose) (HPC) 103 % of control | dose: 25.0 mg/kg/injection, schedule: Q01DX001 (ip), vehicle: Klucel (hydroxypropylcellulose) (HPC) 102 % of control | dose: 50.0 mg/kg/injection, schedule: Q01DX001 (ip), vehicle: Klucel (hydroxypropylcellulose) (HPC) 96 % of control

O=C(Nc1cccc(Cl)c1)c1ccc(Cl)c(Cl)c1
inactive: [4] 110 % of control | [5] 113 % of control | [6] 93 % of control

CCCCCCCCCC[P+](=O)CCCCCCCCCC
inactive: dose: 25.0 mg/kg/injection, schedule: Q04DX003 (ip), vehicle: saline with Tween-80 92 % of control | dose: 50.0 mg/kg/injection, schedule: Q04DX003 (ip), vehicle: saline with Tween-80 89 % of control | [13] 89 % of control | [12] 89 % of control

CCOC1OC(C2COC(=O)O2)C(O)C1O (configuration not stated)
inactive: dose: 100.0 mg/kg/injection, schedule: Q04DX002 (ip), vehicle: saline 100 % of control | dose: 200.0 mg/kg/injection, schedule: Q04DX002 (ip), vehicle: saline 100 % of control and 104 % of control | dose: 400.0 mg/kg/injection, schedule: Q04DX002 (ip), vehicle: saline 100 % of control | dose: 800.0 mg/kg/injection, schedule: Q04DX002 (ip), vehicle: saline 100 % of control

CCCCOC(=O)c1ccc(NC(=S)NCCc2ccccc2)cc1
inactive: [7] 103 % of control | [14] 98 % of control | [15] 95 % of control

CCCCNC(=O)C1C2C=CC(C2)C1C(=O)NCCCC (configuration not stated)
inactive: [11] 96 % of control | [13] 96 % of control | [12] 91 % of control

O=CNNC(=O)c1cnccn1
inactive: dose: 100.0 mg/kg/injection, schedule: Q01DX009 (ip), vehicle: saline 104 % of control | dose: 100.0 mg/kg/injection, schedule: Q04DX003 (ip), vehicle: saline 103 % of control | dose: 177.0 mg/kg/injection, schedule: Q01DX009 (ip), vehicle: saline 117 % of control | dose: 200.0 mg/kg/injection, schedule: Q01DX009 (ip), vehicle: saline 115 % of control | dose: 200.0 mg/kg/injection, schedule: Q04DX003 (ip), vehicle: saline 97 % of control | dose: 266.0 mg/kg/injection, schedule: Q01DX009 (ip), vehicle: saline 114 % of control | dose: 400.0 mg/kg/injection, schedule: Q04DX003 (ip), vehicle: saline 120 % of control

O=C(CI)Nc1cc(C(F)(F)F)ccc1Cl
inactive: dose: 25.0 mg/kg/injection, schedule: Q04DX003 (ip), vehicle: Klucel (hydroxypropylcellulose) (HPC) 102 % of control | dose: 50.0 mg/kg/injection, schedule: Q04DX003 (ip), vehicle: Klucel (hydroxypropylcellulose) (HPC) 94 % of control

Cc1ccc(C)c2c3c(oc12)CCCC3
inactive: [16] 91 % of control | [17] 94 % of control | [18] 105 % of control

OCCSc1ccccc1
inactive: dose: 100.0 mg/kg/injection, schedule: Q04DX003 (ip), vehicle: other 97 % of control | dose: 200.0 mg/kg/injection, schedule: Q04DX003 (ip), vehicle: other 103 % of control | dose: 400.0 mg/kg/injection, schedule: Q04DX003 (ip), vehicle: other 93 % of control

CSc1ccc(/C=N/NC(N)=S)cc1
inactive: [7] 103 % of control | [8] 106 % of control | [14] 92 % of control | [9] 106 % of control | [10] 108 % of control

COC1C(O)C(C)OC(OC2CC3CCC4C(CCC5(C)C(C6=CC(=O)OC6)CCC45O)C3(C)C(OC(C)=O)C2)C1O (configuration not stated) (tested in a mixture with another compound)
inactive: dose: 25.0 mg/kg/injection, schedule: Q01DX009 (sc), vehicle: steriod suspending solution 101 % of control

COc1cc(N(C)C)ccc1C=O
inactive: [2] 93 % of control | [7] 101 % of control | [8] 100 % of control | [14] 105 % of control | [9] 101 % of control | [15] 105 % of control | [10] 97 % of control

CCn1c(C)nc2cc(Cl)c([N+](=O)[O-])cc21
inactive: [16] 91 % of control | dose: 100.0 mg/kg/injection, schedule: Q04DX003 (ip), vehicle: acetone 93 % of control | [17] 110 % of control | dose: 200.0 mg/kg/injection, schedule: Q04DX003 (ip), vehicle: acetone 93 % of control | [18] 96 % of control | dose: 400.0 mg/kg/injection, schedule: Q04DX003 (ip), vehicle: acetone 96 % of control

Cc1cc(N(CCCOS(C)(=O)=O)CCCOS(C)(=O)=O)ccc1C=Nc1cccc(Cl)c1
inactive: [11] 97 % of control | [13] 98 % of control | [12] 92 % of control

O=C(Nc1cccc2ccccc12)OCCCl
inactive: [19] 93 % of control | [20] 90 % of control | [21] 95 % of control

CN(C)S(=O)(=O)c1ccc(NC(=O)OC(C)(c2ccccc2)C2CCCCC2)cc1 (configuration not stated)
inactive: [16] 100 % of control | [17] 100 % of control | [18] 97 % of control

CC1=CC(C)(C)NC(=S)N1c1ccc(N=Nc2ccccc2)cc1
inactive: dose: 334.0 mg/kg/injection, schedule: Q01DX Z (ip), vehicle: methylcellulose (MC) 91 % of control | dose: 500.0 mg/kg/injection, schedule: Q01DX Z (ip), vehicle: methylcellulose (MC) 92 % of control

CCCCCCCC(N)CC(=O)O (configuration not stated)
inactive: [7] 105 % of control | [14] 97 % of control | [15] 107 % of control

CCN(CC)c1ccc(N=Cc2cc(=O)n(C)c3ccccc23)cc1
inactive: [19] 101 % of control | [20] 90 % of control | [21] 88 % of control

NC(=O)OCc1ccccc1
inactive: [3] 98 % of control | [4] 98 % of control | [5] 94 % of control | [6] 94 % of control

N#C/C(=C\C1CCC(Cl)C(Cl)C1)C1CCC([N+](=O)[O-])CC1 (configuration not stated)
inactive: dose: 100.0 mg/kg/injection, schedule: Q04DX002 (ip), vehicle: saline with Tween-80 91 % of control | dose: 400.0 mg/kg/injection, schedule: Q04DX002 (ip), vehicle: saline with Tween-80 91 % of control

CCCCCCCCCCCCCCCCCCOc1ccc(Sc2ccc([N+](=O)[O-])cc2)cc1
inactive: [8] 87 % of control | [9] 88 % of control | [10] 88 % of control
